What was measured:
athletes [1] = experiment: Strength group: maximum weight lifted in 6 basic exercises by athletes taking galanthamine; type: in vivo, human
Source text: (§1) 30 healthy individuals, both male and female, ages 18-28, are separated into 2 groups, 15 persons each, to observe the changes in their strength and endurance after administration of galanthamine and regular physical training. All subjects are athletes who have exercised regularly in the gym for 1 to 3 years. During the 3 week test period, all subjects train about 4 times a week with a special exercise program for the first week as described below, supplemented with the subjects' own preferred training schedule. Strength and endurance are observed through 6 basic exercises involving the major muscle groups as follows:
10 participants in each group take galanthamine, the other 5 take a placebo. The dosage of galanthamine is 7.5 mg daily taken with a meal 1.5-2 hours before the workout on training days and 5 mg daily on non-training days divided into two equal portions taken in the morning and in the afternoon. 2. The Strength Group. • a. The initial level. Before administration of galanthamine the initial strength level of each subject is determined and is defined as the maximum weight a subject is able to lift in all 6 exercises. • b. The training schedule. The subjects use a split training method, that is they alternate on one day training their chest, back and shoulder muscles (performing exercises #1, 2 and 3, respectively) and the next day train their biceps, triceps and legs (exercises #4, 5 and 6, respectively). The subjects do 5-6 sets in each exercise using a pyramidal principle for increasing their strength, i.e. they start every exercise doing 10-15 repetitions using a middle weight, then increase the weight gradually, being able to do fewer repetitions, until the maximum weight they are able to lift for one repetition with difficulty is reached. 2 sets are then performed using the same or 5-10% less weight. This maximum weight is considered the “record for the day”, and is compared to the initial level. • c. The results. An increase in strength is observed almost immediately after administration of galanthamine. […]

athletes [2] = experiment: Endurance group: maximum repetitions in 6 basic exercises by athletes taking galanthamine; type: in vivo, human; settings: vs initial level
Source text: as §1
10 participants in each group take galanthamine, the other 5 take a placebo. The dosage of galanthamine is 7.5 mg daily taken with a meal 1.5-2 hours before the workout on training days and 5 mg daily on non-training days divided into two equal portions taken in the morning and in the afternoon. 2. The Strength Group. • a. The initial level. Before administration of galanthamine the initial strength level of each subject is determined and is defined as the maximum weight a subject is able to lift in all 6 exercises. • b. The training schedule. […]

COc1ccc2c3c1O[C@H]1C[C@@H](O)C=C[C@@]31CCN(C)C2 [galanthamine]
average increase in strength (athletes [1]; after 1 week, 7.5 mg daily on training days, 5 mg daily on non-training days, vs initial level): 4-7% | total increase in strength (athletes [1]; by the third week, 7.5 mg daily on training days, 5 mg daily on non-training days, vs initial level): 10-13% | increase in strength reported by athletes (athletes [1]; continued galanthamine for up to 3 months, during the entire period): over 20% | average endurance increase (athletes [2]; after the first week, 7.5 mg daily on training days, 5 mg daily on non-training days): 11% | average endurance increase (athletes [2]; end of the trial, after 3 weeks of treatment): 24%

— patent publication US8603546B2, “Herbal supplement for increased muscle strength and endurance for athletes” (priority 1999, dated 2013)
